What was measured:
conscious guinea pigs = experiment: 5-HTP-stimulated micturition (overactive urinary bladder responses) in conscious guinea pigs; assay type: in vivo, guinea pig; conditions: for decrease of micturition volume / decrease of voiding frequency: one hour prior to 5-HTP (10 mg/kg s.c.), assessed over 17 hours, mean±SEM
Procedure: In conscious guinea pigs, an experimental paradigm is applied to stimulate micturition through subcutaneous administration of 5-hydroxytryptophan (5-HTP, 10 mg/kg). The measurement of both voiding frequency and micturition volume is used to quantify the effects of the compound of formula II (Belis, et al 1996). Vehicle or the compound of formula II (1 and 3 mg/kg) are dosed orally one hour prior to the stimulation with 5-HTP.
The effects of vehicle and the compound of formula II are assessed over 17 hours in 4 to 8 animals. […] The compound of formula II attenuates the overactive bladder responses upon stimulation with 5-HTP.
The effects are statistically significant at both doses tested (p<0.05; RM ANOVA, post-hoc Tukey test). See also FIG. 1.

[1] = tested on: longitudinal muscle-nerve preparations from the guinea-pig urinary bladder; experiment: Substance P-stimulated detrusor contractility, organ bath; assay type: cell-based
Procedure: Detrusor contractility is tested in longitudinal muscle-nerve preparations from the guinea-pig urinary bladder (Mackenzie and Burnstock 1984). In organ bath studies, isometric contractile responses are evoked by cumulative application of substance P (0.1 nM up to 30 μM). Substance P stimulates contractions in a concentration-dependent fashion (pD2=6.68±0.23; mean±SEM; n=5 preparations).

[2] = 5-HTP 10 mg/kg subcutaneous, over 17 hours

N[C@@H](Cc1c[nH]c2ccc(O)cc12)C(=O)O [S-HTP, 5-hydroxytryptophan, reference compound]
increase of micturition volume as compared to control animals (conscious guinea pigs; [2]): 4.5 fold | increase of voiding frequency as compared to control animals (conscious guinea pigs; [2]): 2.7 fold

CN(C(=O)c1cc(C(F)(F)F)cc(C(F)(F)F)c1)[C@@H](/C=C/C(=O)N[C@@H]1CCCCNC1=O)Cc1ccc(Cl)c(Cl)c1 [compound of formula II, (4R)-4-[N′-methyl-N′-(3,5-bistrifluoromethylbenzoyl)amino]-4-(3,4-dichlorobenzyl)-but-2-enoic acid N-[(R)-epsilon-caprolactam-3-yl]-amide]
decrease of micturition volume (conscious guinea pigs; 1 mg/kg p.o.): 32.9%±4.5% | decrease of voiding frequency (conscious guinea pigs; 1 mg/kg p.o.): 45.4%±7.1% | decrease of micturition volume (conscious guinea pigs; 3 mg/kg p.o.): 36.6%±6.2% | decrease of voiding frequency (conscious guinea pigs; 3 mg/kg p.o.): 26.2%±7.1% | Schild plot slope ([1]; 10 nM, 100 nM and 1000 nM vs substance P): −0.98 | pA2 (Schild plot analysis), inhibition of substance P-evoked contractile responses ([1]; 10 nM, 100 nM and 1000 nM, competitive, substance P 0.1 nM up to 30 μM cumulative): 7.97

substance P [reference compound]
pD2, stimulation of isometric contractions ([1]; cumulative application 0.1 nM up to 30 μM, mean±SEM, n=5 preparations): 6.68±0.23
